Consider 4 molecules from patent publication US20090274674A1, “Heterocyclic Oxime Compounds, Process for Their Preparation and Pharmaceutical Compositions Containing Them” (LES LABORATOIRES SERVIER, priority 2005, published 2009).

For data set [1], the system named is ob/ob mouse. As to the kind of experiment: Antidiabetic and hypolipaemic effect in the ob/ob mouse. It is filed as in vivo. Particulars: male ob/ob mouse, 3 mg/kg oral once per day for four days, measured 24 hours after the final administration. The text has this:
Mutations in laboratory animals and also different sensitivities to dietary regimens have allowed the development of animal models having non-insulin-dependent diabetes and hyperlipidaemia associated with obesity and with resistance to insulin. Genetic mice models (ob/ob) (Diabetes, 1982, 31 (1), 1-6) and Zucker (fa/fa) rats have been developed by various laboratories in order to understand the physiopathology of those diseases and test the effectiveness of new antidiabetic compounds (Diabetes, 1983, 32, 830-838).
Antidiabetic and Hypolipaemic Effect in the ob/ob Mouse
The 10-week-old male ob/ob mouse (Harlan) is used for the in vivo tests. The animals are kept in a light-darkness cycle of 12 hours at 25° C. This mouse has a basal hyperglycaemia of 2 g/l. The animals are randomly selected with regard to their glycaemia to form groups of eight. The compounds tested by the oral route are dissolved in a mixture of hydroxyethyl cellulose (HEC 1%) to be administered at 3 mg/kg in a volume of 10 ml/kg once per day for four days. The control group receives the solvents under the same conditions as the treated groups. The activity of the products is evaluated by measuring glycaemia, triglyceridaemia and insulinaemia 24 hours after the final administration and by measuring body weight daily.

Structures are written as SMILES.

For the molecule `CON=C(c1ccccc1)c1ccc2ccn(CCOc3ccc(C[C@H](OCC(F)(F)F)C(=O)O)cc3)c2n1` [Example 32, (2S)-3-[4-(2-{6-[(Methoxyimino) (phenyl)methyl]-1H-pyrrolo[2,3-b]pyridin-1-yl}ethoxy)phenyl]-2-(2,2,2-trifluoroethoxy)propanoic acid], in data set [1], the “reduction in glycaemia compared with the control” value is listed as 43%, the “reduction in insulinaemia compared with the control group” value came to 23% and the “reduction in triglyceridaemia compared with the control group” value is recorded as 37%.

Broadly, the melting point is the temperature of the solid-liquid transition. With `CO/N=C(/c1ccccc1)c1cnc2c(ccn2CCOc2ccc(CC(OCC(F)(F)F)C(=O)O)cc2)c1Cl` (stereo not drawn) [Example 16, 3-[4-(2-{4-Chloro-5-[(Z)-(methoxyimino)(phenyl)methyl]-1H-pyrrolo[2,3-b]pyridin-1-yl}ethoxy)phenyl]-2-(2,2,2-trifluoro-ethoxy)propanoic acid], the melting point is 186 °C.

Turning to `CCOC(Cc1ccc(OCCn2ccc3cc(C(=NOC)c4ccccc4)cnc32)cc1)C(=O)OC` (stereo not drawn) [Example 11, Methyl 2-ethoxy-3-[4-(2-{5-[(methoxyimino)(phenyl)methyl]-1H-pyrrolo[2,3-b]pyridin-1-yl}ethoxy)phenyl]propanoate], the melting point turned out to be 145 °C.

`CON=C(c1ccccc1)c1cnc2c(ccn2CCOc2ccc(CC(OCC(F)(F)F)C(=O)O)cc2)c1` (stereo not drawn) [Example 14, 3-[4-(2-{5-[(Methoxyimino)(phenyl)methyl]-1H-pyrrolo[2,3-b]pyridin-1-yl}ethoxy)phenyl]-2-(2,2,2-trifluoroethoxy)propanoic acid]: the melting point is 182 °C (dec.).
